Results as given in ChEMBL document CHEMBL1201862, “PubChem BioAssay data set” (2004).
Where “and” joins values, the source holds several entries; their conditions need not be identical. Equal values may be shown once.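 Interpolation was linear, between the two tested concentrations surrounding the appropriate level; five concentrations were tested over 48 hours in 96-well plates. GI50 is the concentration that inhibits growth by half.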 Calls of active or inactive are those of the source. Rule as the data show it: active = GI50 up to about 1.1 µM and inactive = higher.

How the values were obtained:
Assay in all cases: growth of human tumour cells (NCI), 48 h
NCI/ADR-RES = test system: NCI/ADR-RES
RXF 393 = test system: RXF 393
SF-539 = test system: SF-539
T47D = test system: T47D
SW-620 = test system: SW-620
A549 = test system: A549
MDA-MB-435 = test system: MDA-MB-435
RPMI-8226 = test system: RPMI-8226
HL-60 = test system: HL-60
EKVX = test system: EKVX
CCRF-CEM = test system: CCRF-CEM
UACC-62 = test system: UACC-62
MOLT-4 = test system: MOLT-4
ACHN = test system: ACHN
K562 = test system: K562
NCI-H460 = test system: NCI-H460
SK-MEL-28 = test system: SK-MEL-28
PC-3 = test system: PC-3
DU-145 = test system: DU-145
MCF7 = test system: MCF7
KM12 = test system: KM12
HT-29 = test system: HT-29
UO-31 = test system: UO-31
HCT-116 = test system: HCT-116
SN12C = test system: SN12C
NCI-H226 = test system: NCI-H226
OVCAR-5 = test system: OVCAR-5
HCT-15 = test system: HCT-15
Malme-3M = test system: Malme-3M
UACC-257 = test system: UACC-257
HCC 2998 = test system: HCC 2998
M14 = test system: M14
LOX IMVI = test system: LOX IMVI
MDA-N = test system: MDA-N
IGROV-1 = test system: IGROV-1
HOP-62 = test system: HOP-62
CAKI-1 = test system: CAKI-1
SK-OV-3 = test system: SK-OV-3
SK-MEL-2 = test system: SK-MEL-2
U-251 = test system: U-251
OVCAR-4 = test system: OVCAR-4
OVCAR-3 = test system: OVCAR-3
TK-10 = test system: TK-10
Hs-578T = test system: Hs-578T
SK-MEL-5 = test system: SK-MEL-5
SF-295 = test system: SF-295
OVCAR-8 = test system: OVCAR-8
NCI-H522 = test system: NCI-H522
SF-268 = test system: SF-268
786-0 = test system: 786-0
HOP-92 = test system: HOP-92
NCI-H23 = test system: NCI-H23
A498 = test system: A498
MDA-MB-231 = test system: MDA-MB-231

Measured: GI50

CC(=O)OCC1OC(n2c(-c3ccc(Cl)cc3)ccc(C#N)c2=S)C(OC(C)=O)C(OC(C)=O)C1OC(C)=O (configuration not stated)
> 100 µM: HCT-15
inactive: NCI/ADR-RES 74 µM | RXF 393 20 µM and 13.3 µM | SF-539 30.4 µM and 39.1 µM | T47D 30.6 µM and 48.9 µM | SW-620 > 100 µM | A549 83.9 µM and 66.5 µM | MDA-MB-435 53.3 µM | RPMI-8226 > 100 µM and 56 µM | HL-60 > 100 µM | EKVX 17.6 µM and 15.1 µM | CCRF-CEM > 100 µM | UACC-62 37.4 µM and 31.6 µM | MOLT-4 > 100 µM and 51.3 µM | ACHN 68.1 µM and 58.5 µM | K562 > 100 µM | NCI-H460 > 60.4 µM and 55.5 µM | SK-MEL-28 > 100 µM | PC-3 > 100 µM and 55.5 µM | DU-145 74.8 µM and > 77.1 µM | MCF7 > 100 µM and 50.5 µM | KM12 > 100 µM | HT-29 > 100 µM | UO-31 29.6 µM and 33.6 µM | HCT-116 77.4 µM and 61.2 µM | SN12C > 100 µM | NCI-H226 27 µM and 45.9 µM | OVCAR-5 > 100 µM | Malme-3M > 61.1 µM and 45 µM | UACC-257 > 100 µM and 73.6 µM | HCC 2998 > 100 µM | M14 76 µM and > 84.7 µM | LOX IMVI 54.1 µM | MDA-N > 100 µM

CCOC(=O)Cn1nnc2cc(Nc3c(C)[n+]([O-])c4cc(F)c(OCC)cc4[n+]3[O-])ccc21
active: MOLT-4 273 nM
> 100 µM: HCT-15
inactive: NCI/ADR-RES > 100 µM | IGROV-1 96.2 µM | RXF 393 31.8 µM | HOP-62 27.5 µM | CAKI-1 > 100 µM | SK-OV-3 38.6 µM | SF-539 > 100 µM | SK-MEL-2 32.4 µM | T47D > 100 µM | U-251 32.5 µM | OVCAR-4 > 100 µM | SW-620 > 100 µM | MDA-MB-435 > 100 µM | OVCAR-3 > 100 µM | RPMI-8226 > 100 µM | HL-60 > 100 µM | EKVX > 100 µM | CCRF-CEM > 100 µM | TK-10 24.9 µM | Hs-578T 41.8 µM | SK-MEL-5 > 100 µM | SF-295 38.3 µM | ACHN 35.9 µM | K562 7.16 µM | NCI-H460 > 100 µM | SK-MEL-28 > 100 µM | OVCAR-8 > 100 µM | PC-3 > 100 µM | DU-145 > 100 µM | MCF7 > 100 µM | NCI-H522 > 100 µM | KM12 > 100 µM | SF-268 45.8 µM | 786-0 43.4 µM | HT-29 > 100 µM | UO-31 > 100 µM | HCT-116 > 100 µM | HOP-92 13.6 µM | NCI-H226 > 100 µM | OVCAR-5 > 100 µM | NCI-H23 > 100 µM | UACC-257 > 100 µM | A498 > 100 µM | M14 > 100 µM | LOX IMVI > 100 µM | MDA-MB-231 27.1 µM
